Values quoted from earlier work as cited in publication PMC2885594 (Current Chemical Genomics, 2010).

System: TPH1
Conditions: ref [30]

N[C@@H](Cc1c[nH]c2ccc(O)cc12)C(=O)O [5-HTP]
mechanism of inhibition versus phenylalanine: competitive
mechanism of inhibition versus pterin: uncompetitive
